Measured values: US20050143346A1, “Composition for treating cancer containing n,n-dimethylphytosphingosine” (priority 2002, published 2005)

Columns and labels:
Bacillus licheniformis = assay: Antibacterial effect, colony counting; format: cell-based; settings: B. licheniformis, FIG. 12
Experimental: (§1) The present inventors performed experiment using Bacillus licheniformis (Gram positive bacteria) and E. coli(Gram negative bacteria) to test an antibacterial activity of N,N-dimethylphytosphingosine. In this experiment, autoclaved LB (bactopeptone 10 g/l, yeast extracts 5 g/l, and sodium chloride 10 g/l) or TS (triptone 15 g/l, soitone 5 g/l, and sodium chloride 5 g/l) was used as culture medium, and cultured at 30° C. or 37° C. for 2-3 days. After culturing, an antibacterial capacity was measured by counting the number of cells. […] Each microbe was cultured, diluted successively with 10-fold, smeared on the medium, cultured again, and then dilution rate which formed 30-300 populations per plate medium was determined. After culturing each microbe, the culture was diluted with the determined dilution rate. At this time, 0.85% NaCl was used as a diluted solution. A sample which was prepared by above mentioned method was diluted successively with a solvent for preparing the sample. After obtaining the desired concentration, 1 ml of the diluted sample was added to 9 ml of a diluted solution of microbes, and then mixed thoroughly. After standing at 30° C. or 37° C. for 1 hr (with mixing occasionally), each 100 μl was smeared on the culture medium. After culturing under individual condition, the number of population was measured.

E. coli = assay: Antibacterial effect, colony counting; format: cell-based; settings: FIG. 12
Experimental: as §1

protein kinase C(PKC) = assay: PKC inhibition effect using epidermis cells of rat; format: cell-based; settings: 100 μM and 400 μM; compared with other sphingolipid derivatives; FIG. 11
Experimental: The present inventors assessed an inhibitory effect of N,N-dimethylphytosphingosine on protein kinase C(PKC) using epidermis cells of rat. Epidermis cells were cultured to 2×10^7 cell/ml. N,N-dimethylphytosphingosine and other sphingolipid derivatives (100 μM and 400 μM respectively) were added, and reacted. The cells were washed with PBS and disrupted with homogenizer. The disruption of cells was centrifuged, and the supernatant was passed through DE52 column to obtain a portion containing protein kinase C. For activated PKC reaction, a tube containing 5 μl of PKC coactivation 5× buffer, PKC activation 5× buffer, PKC biotinylated peptide substrate, [32P]ATP mix respectively were prepared as a control. Also, other individual tubes containing 5 μl of PKC coactivation 5× buffer, control 5× buffer, PKC biotinylated peptide substrate, [32P]ATP mix were prepared further containing 5 μl of the relevant enzyme in each tube. The reaction was performed at 30° C. for 5 min. Thereafter, terminating solution (12.5 μl) was added to quench the reaction. The reaction solution (10 μl) was dropped on SAM2™ membrane, washed with 2 M NaCl (1×, 30 seconds), 2 M NaCl (3×, 2 min), 1% H3PO4 and 2M NaCl solution (4×, 2 min), and distilled water (2×, 30 seconds), dried and then measured isotope to assess the effect of PKC inhibition. The results were in FIG. 11. […]

LLC-PK1 cell = assay: MTT assay, apoptosis inducing effect on LLC-PK1 cell; format: cell-based; settings: FIG. 6
Experimental: (§2) This experiment was performed by MTT assay. MTT (3-[4,5-Dimethylthiazol-2-yl]-2,5-diphenyltetrazolium) is a staining reagent displaying yellow color when it is dissolved in medium, but it is discolored to violet formazan by active dehydrogenase in mitochondria of viable cell. […] HL60 cell lines were seeded to 96-well plate at appropriate concentration, and incubated in 5% CO2 incubator at 37° C. for 24 hrs. Thereafter, individual sample to be assessed on apoptosis effect, i.e. phytosphingosine, C2 phytoceramide, tetraacetylphytosphingosine, C6 phytoceramide, C8 phytoceramide, C3 ceramide, sphinganine, dimethylsphingosine and dimethylphytosphingosine was diluted with serum free RPMI. Cells were treated with […]˜50 µM of the dilutions, and incubated for 24 hrs. MTT (final concentration: 0.5 mg/ml) was loaded to the individual well. After incubating for another 3 hrs and dissolving the staining reagent with pipette, the absorbance was measured at 570 nm.
This Experiment was carried out in an identical manner to that described for example 3, except for using LLC-PK1 cell to induce apoptosis.

MDA-MB-231 cell = assay: MTT assay, apoptosis inducing effect on MDA-MB-231 cell; format: cell-based; settings: FIG. 8
Experimental: as §2
This Experiment was carried out in an identical manner to that described for example 3, except for using MDA-MB-231 cell to induce apoptosis.

HL60 cells = assay: DNA fragmentation by agarose gel electrophoresis; format: cell-based; settings: 24 hrs, FIG. 9
Experimental: DNA fragmentation as a representative characteristic of apoptosis was assessed at a level of concentration including cytotoxicity. Apoptosis is a programmed cell death, characterized by complicate biological characteristics including morphological changes, chromatin condensation, a formation of apoptotic body and the like. This experiment was performed to assess DNA fragmentation among them. HL60 cells were seeded (1×10^7 cell/10 ml), and incubated in 5% CO2 incubator at 37° C. for 24 hrs. Then, N,N-dimethylphytosphingosine and control substances (at concentration indicated in FIG. 9) was added and incubated for 24 hrs. All of substances were dissolved in EtOH. Cells were recovered by centrifugation, and then cell membrane was disrupted by adding lysis buffer (5 mM Tris-HCl (PH 7.4), 20 mM EDTA, 0.5% Triton X-100). After centrifuging at 12,000 rpm for 10 min, supernatant in which DNA fragments were dissolved was recovered. To the supernatant was added equivalent amount of phenol, vortexed, centrifuged at 12,000 rpm for 10 min, and then supernatant was recovered carefully. DNA extraction with phenol:chloroform:isoamylalcohol (25:24:1) or chloroform was performed in a same manner as the method with phenol. To the supernatant which was treated by various solvents was added a solution of 0.3 M sodium acetate (pH 5.2) in EtOH, and precipitated in a freezer at −20° C. for 24 hrs. After centrifuging at 12,000 rpm for 10 min, supernatant was decanted to obtain DNA pellets. 70% EtOH was added to the remaining DNA pellets to wash them. Again, after centrifuging, supernatant was discarded, the remaining DNA fragments were dissolved in TE buffer. To remove RNA in addition-to DNA fragments, […] of 0.5 mg/ml RNAse was added, and reacted at 37° C. for 30 min. DNA fragmentation was found by 1.2% agarose gel electrophoresis. […] N-acylsphingosine was known as apoptosis inducing substance, and DNA fragmentation was one example of such effects. […] Accordingly, it is considered that N,N-dimethylphytosphingosine of the present invention has excellent apoptosis inducing effect compared to N-acylsphingosine. It was not observed that CLA ceramide belonging to sphingosineceramide induced DNA fragmentation.
The following is the meaning of the symbols used in FIG. 9. • SM: DNA size marker • EtOH: Ethanol • 1: DMPS 12.5 μM • 2: DMPS 25.0 μM • 3: DMPS 50.0 μM • 4: C2 ceramide 25.0 μM • 5: C2 ceramide 50.0 μM • 6: CLA ceramide 25.0 μM • 7: CLA ceramide 50.0 μM

B104 cell = assay: MTT assay, apoptosis inducing effect on B104 cell; format: cell-based; settings: FIG. 7
Experimental: as §2
This Experiment was carried out in a manner identical to that described for example 3, except for using B104 cell to induce apoptosis.

[1] = test system: histone component presented in nucleosome of cytoplasm of cell lysates; assay: Anti-histone antibody binding ELISA (mono- or oligosome detection); format: cell-based; settings: FIG. 10
Source text: This experiment was based on the theory of ELISA. Briefly, Mono- or oligosome of degraded nucleic acid in cytoplasm can be detected by means of monoclonal antibodies which are specific for histones (H2A, H2B, H3 and H4) and single-stranded or double-stranded DNA. Cells which apoptosis was induced activated Ca2+ and Mg2+-dependent endonuclease, and the enzyme degraded adjacent double stranded DNA to form mono- or oligosome. On this account, histone which had been compactly bound to the DNA in nucleus was exposed to outside.
First, anti-histone antibody was immobilized to 96 well plate. Coating solution was added, and reaction was performed at ambient temperature for 1 hr. Then, each sample was treated to obtain cell lysates, and histone component presented in nucleosome of cytoplasm of cell lysates was adhered to the 96 well plate to which anti-histone antibody was immobilized. Above procedure was performed at 15˜25° C. for 90 min. Then, anti-DNA-peroxidase (POD) was bound to DNA part of nucleosome of cytoplasm. This procedure was performed at ambient temperature for 90 min. Unbound peroxidase conjugate was washed, ABTS(2,2′-azino-di-[3-ethylbenzthiazoline sulfonate]) was added as an substrate, reacted for 10˜20 min, and then absorbance was measured at 405 nm.

[2] = test system: sphingosine kinase from mouse; assay: Inhibition of sphingosine kinase activity ([32P]ATP, sphingosine-1-phosphate formation); format: biochemical; settings: compared with dimethylsphingosine; 37° C. for 20 min; FIG. 3
Experimental: The same experiment was performed on dimethylsphingosine to compare with the effect of dimethylphytosphingosine of the present invention. Sphingosine kinase assay buffer was prepared as follows to determine an activity of sphingosine kinase: 20 mM Tris buffer, pH 7.2, 10 mM MgCl2, 20% glycerol, 1 mM dithiothreitol, 1 mM Na3VO4, 15 mM NaF, […] leupeptin and aprotinin, 1 mM PMSF and 0.5 mM 4-deoxypyridoxine.
The reaction was 200 μl, each 50 μM dimethylsphingosine and dimethylphytosphingosine dissolved in 0.25% Triton X-100, 10 ng of sphingosine kinase from mouse and 1 mM [32P] ATP were added, and reacted at 37° C. for 20 min. After completion of the reaction, the reaction was terminated by adding 20˜50 μl of 1N HCl. Following termination, lipid was separated and purified by adding 1 ml of chloroform, and dried under nitrogen gas. An inhibitory effect against sphingosine kinase was found by measuring isotope with scintillation counter and then determining produced sphingosine-1-phosphate. In the graph, indicated in FIG. 3, Y axis represents CPM and X axis represents concentration (μM).

HaCaT cell = assay: MTT assay, apoptosis inducing effect on HaCaT cell; format: cell-based; settings: FIG. 5
Experimental: as §2
This Experiment was carried out in an identical manner to that described for example 3, except for using HaCaT cell to induce apoptosis.

HL60 cell = assay: MTT assay, apoptosis inducing effect on HL60 cell; format: cell-based; settings: 0.5 M˜[…], 24 hrs, FIG. 4
Experimental: An apoptosis inducing effect of N,N-dimethylphytosphingosine was assayed. Anti-cancer effect is expressed through various signal transduction pathway depending on working mechanism and chemical structure, but consequently give rise to apoptosis which allows cells to be killed.
as §2

Row | Compound | amount of colonies reduced to (Bacillus licheniformis; 1 μg/ml) | number of colonies (Bacillus licheniformis) | amount of colonies reduced to (E. coli; 1 μg/ml) | number of colonies (E. coli) | inhibitory effect on PKC (protein kinase C(PKC)) | cell death (MTT assay) (LLC-PK1 cell) | cell death effect compared to dimethylsphingosine (LLC-PK1 cell) | cell death (MTT assay) (MDA-MB-231 cell) | cell death effect compared to dimethylsphingosine (MDA-MB-231 cell) | DNA fragmentation (electrophoresis), result in words (HL60 cells; DMPS 12.5-50.0 μM, C2 ceramide and CLA ceramide 25.0 and 50.0 μM) | concentration at which DNA fragmentation was induced (HL60 cells) | degree of DNA fragmentation compared to C2 ceramide (HL60 cells) | cell death (MTT assay) (B104 cell) | cell death effect compared to dimethylsphingosine (B104 cell) | absorbance (A405 nm-A490 nm), anti-histone antibody binding [1] | inhibitory effect against sphingosine kinase (produced sphingosine-1-phosphate, CPM) [2] | cell death (MTT assay) (HaCaT cell) | cell death effect compared to dimethylsphingosine (HaCaT cell) | cell death (MTT assay) (HL60 cell)
1 | CCCCCCCCCCCCCCC(O)C(O)C(CO)N(C)C (centres unmarked) [N,N-dimethylphytosphingosine] | 40% | reduced | 40% | reduced | stronger inhibitory effect than any other compound | induced cell death | far superior to that of dimethylsphingosine | induced cell death | far superior to that of dimethylsphingosine | obvious ladder-like DNA fragmentation at a lower concentration compared to C2-ceramide | 25.0 µM | stronger than C2 ceramide | induced cell death | far superior to that of dimethylsphingosine | higher absorbance (A405 nm-A490 nm) than other controls | more strong inhibitory effect than that of dimethylsphingosine | induced cell death | far superior to that of dimethylsphingosine | induced cell death
2 | CCCCCCCCCCCCC/C=C/[C@@H](O)[C@H](CO)NC(C)=O [C2-ceramide, N-acylsphingosine, reference compound] | – | – | – | – | – | – | – | – | – | – | 25.0 µM | – | – | – | – | – | – | – | –
